Measurements taken from US6265537A, “Thiodepsipeptides for combating endoparasites and a method for producing the same” (Bayer Aktiengesellschaft, priority 1997, dated 2001).

How the values were obtained:
Haemonchus contortus = experiment: In vivo nematode test Haemonchus contortus/sheep; settings: sheep infected with Haemonchus contortus; applied orally and/or intravenously as pure active compound; complete cessation of worm egg excretion with the faeces after treatment
Experimental: Haemonchus contortus/Sheep Sheep which had been experimentally infected with Haemonchus contortus were treated after the prepotency time of the parasite had elapsed. The active compounds were applied orally and/or intravenously as pure active compound. The degree of effectiveness is determined by quantitatively counting the worm eggs which have been excreted with the faeces before and after the treatment. A complete cessation of egg excretion after the treatment means that the worms have been aborted or damaged to such an extent that they no longer produce eggs (dosis […]). Active compounds tested and effective dosage rates can be seen from the table which follows

Heterakis spumosa = experiment: In vivo nematode test Heterakis spumosa/mouse; settings: mice infected with Heterakis spumosa; dosage rate 50 mg/kg, applied orally and/or intraperitoneally on day 46 after infection; adult parasites in colon and caecum counted on day 54, compared with untreated control
From the text: Mice are experimentally infected with nematodes of the variety Heterakis spumosa. In order to infect the mice, 90 embryonate Heterakis spumosa eggs are applied orally.
After the prepotency time had elapsed, the suspended active compounds are applied orally and/or intraperitoneally on the 46th day after the infection.
The mice are selected on the 54th day after the infection. The adult parasites in the colon and caecum are counted with the aid of a microscope. The treatment results in the doses group are compared with the untreated control group.
Active compounds tested and effective dosage rates (dosis effectiva) can be seen from the table which follows.

Molecule: CC(C)CC1C(=O)OC(Cc2ccc(N3CCOCC3)cc2)C(=O)N(C)C(CC(C)C)C(=O)OC(C)C(=O)N(C)C(CC(C)C)C(=O)OC(Cc2ccc(N3CCOCC3)cc2)C(=O)N(C)C(CC(C)C)C(=O)OC(C)C(=O)N1C [Cyclo(-MeLeu-D-Lac-MeLeu-D-4-MorPhLac-)2, cyclo(-N-methyl-L-leucyl-D-lactyl-N-methyl-L-leucyl-D-4-N-morpholino-phenyllactyl-N-methyl-L-leucyl-D-lactyl-N-methyl-L-leucyl-D-4-N-morpholinophenyllactyl-), reference compound]
- Effective dosage rates in [mg/kg] (dosis effectiva) (Haemonchus contortus): 0.05 mg/kg

Molecule: CC(C)C[C@H]1C(=O)O[C@H](Cc2ccccc2)C(=O)N(C)[C@@H](CC(C)C)C(=O)O[C@H](C)C(=O)N(C)[C@@H](CC(C)C)C(=O)O[C@H](Cc2ccccc2)C(=O)N(C)[C@@H](CC(C)C)C(=O)O[C@H](C)C(=O)N1C [PF 1022A, cyclo(-N-methyl-L-leucyl-D-lactyl-N-methyl-L-leucyl-D-phenyllactyl-N-methyl-L-leucyl-D-lactyl-N-methyl-L-leucyl-D-phenyllactyl-), reference compound]
- Reduction rate in [%] (Heterakis spumosa): 0%
- Effective dosage rates in [mg/kg] (dosis effectiva) (Haemonchus contortus): 0.25 mg/kg

Molecule: Cyclo(-N-methyl-L-leucyl-D-thiolactyl-N-melhyl-L-leucyl-D-4-N-morpholinophenylthiiolactyl-N-methyl-L-leucyl-D-thiolactyl-N-methyl-L-leucyl-D-4-N-morpholinophenylthiolactyl-) [Example 3]
- Effective dosage rates in [mg/kg] (dosis effectiva) (Haemonchus contortus): 0.025 mg/kg

Molecule: Cyclo(-N-methyl-L-leucyl-D-thiolactyl-N-methyl-L-leucy-D-4-(pyrid-2-yl-methoxy)-phenylthiolactyl-N-methyl-L-leucy-D-thiolactyl-N-methyl-L-leucyl-D-4-(pyrid-2-yl-methoxy)-phenylthiolactyl-) [Example 6]
- Effective dosage rates in [mg/kg] (dosis effectiva) (Haemonchus contortus): 0.01 mg/kg

Molecule: Cyclo(-N-methyl-L-leucyl-D-thiolactyl-N-methyl-L-leucyl-D-4-(pyrid-2-yl-methoxy)-phenyllactyl-N-methyl-L-keucyl-D-lactyl-N-methyl-L-leucyl-D-4-(pyrid- 2-yl-methoxy)-phenyllactyl-) [Example 10]
- Effective dosage rates in [mg/kg] (dosis effectiva) (Haemonchus contortus): 0.01 mg/kg

Molecule: Cyclo(-N-methyl-L-leucyl-D-thiolactyl-N-methyl-L-leucyl-D-phenylthiolactyl- N-methyl-L-leucyl-D-thiolactyl-N-methyl-L-leucyl-D-phenylthiolactyl-) [Example 1]
- Reduction rate in [%] (Heterakis spumosa): 100%
- Effective dosage rates in [mg/kg] (dosis effectiva) (Haemonchus contortus): 0.10 mg/kg

Molecule: Cyclo(N-methyl-L-leucyl-D-thiolactyl-N-methyl-L-leucyl-D4-fur-2-yl-methoxy)-phenyllactyl-N-methyl-L-leucyl-D-lactyl-N-methyl-L-leucyl-D-phenyllactyl-) [Example 12]
- Effective dosage rates in [mg/kg] (dosis effectiva) (Haemonchus contortus): 0.01 mg/kg

Molecule: Cyclo(N-methyl-L-leucyl-D-thiolactyl-N-methyl-L-leucyl-D-4-N-morpholinophenyllactyl-N-methyl-L-leucyl-D-lactyl-N-methyl-L-leucyl-D-4-N-morpholinophenyllactyl-) [Example 8]
- Effective dosage rates in [mg/kg] (dosis effectiva) (Haemonchus contortus): 0.01 mg/kg

Molecule: Cyclo(N-methyl-L-leucyl-D-thiolactyl-N-methyl-L-leucyl-D-phenyllactyl-N-methyl-L-leucyl-D-lactyl-N-methyl-L-leucyl-D-phenyllactyl-) [Example 7]
- Effective dosage rates in [mg/kg] (dosis effectiva) (Haemonchus contortus): 0.01 mg/kg
